Experimental data taken from ChEMBL document CHEMBL4665676, “Matrix Metalloproteinases as New Targets in Alzheimer's Disease: Opportunities and Challenges” (J Med Chem, 2020).
pIC50: −log10 of the molar value. Blank lines part the entries; values can stand above or below the molecule they belong to. Peptide text beside a SMILES is read from it.

Legend:
[1] = molecular target: T1, Matrix metalloproteinase-14 (Homo sapiens, UniProt P50281); assay: Inhibition of MT1-MMP catalytic domain (unknown origin) expressed in Escherichia coli using 7-methoxycoumarin-4-yl)acetyl-Pro-Leu-Gly-Leu-(3-[2,4-dinitrophenyl]-L-2,3-diaminopropionyl)-Ala-Arg-NH2 as substrate incubated for 30 mins by fluorescence method
[2] = molecular target: Macrophage metalloelastase (Homo sapiens, UniProt P39900); assay: Inhibition of recombinant human MMP12 using Mca-Pro-Leu-Gly-Leu-Dpa-Ala-Arg-NH2 as substrate by […] method
[3] = molecular target: T2, Matrix metalloproteinase-9 (Homo sapiens, UniProt P14780); assay: Inhibition of human MMP9 measured at 5 mins interval for 1 hr by fluorescence method
[4] = molecular target: T3, 72 kDa type IV collagenase (Homo sapiens, UniProt P08253); assay: Inhibition of human MMP2 measured at 5 mins interval for 1 hr by fluorescence method
[5] = molecular target: T1, Matrix metalloproteinase-14; assay: Inhibition of human MT1-MMP using 3163v as substrate preincubated for 15 mins followed by substrate addition and measured after 40 mins by fluorometric method
Stromelysin-1 = Stromelysin-1 (Homo sapiens, UniProt P08254); assay: Inhibition of MMP3 (unknown origin) using 3168v as substrate preincubated for 15 mins followed by substrate addition and measured after 40 mins by fluorometric method
Matrilysin = molecular target: T4, Matrilysin (Homo sapiens, UniProt P09237); assay: Inhibition of human MMP7 using 3163v as substrate preincubated for 15 mins followed by substrate addition and measured after 40 mins by fluorometric method
T4 sequence (P09237 whole entry): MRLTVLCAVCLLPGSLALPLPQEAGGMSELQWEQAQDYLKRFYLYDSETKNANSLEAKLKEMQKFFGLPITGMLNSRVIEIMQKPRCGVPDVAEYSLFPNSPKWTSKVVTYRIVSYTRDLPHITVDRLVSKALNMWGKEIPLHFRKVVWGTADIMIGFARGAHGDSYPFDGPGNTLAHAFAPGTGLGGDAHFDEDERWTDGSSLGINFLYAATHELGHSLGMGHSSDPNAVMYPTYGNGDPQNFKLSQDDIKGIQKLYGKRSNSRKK

[6] = molecular target: T3, 72 kDa type IV collagenase; assay: Inhibition of MMP2 (unknown origin) using 3163v as substrate preincubated for 15 mins followed by substrate addition and measured after 40 mins by fluorometric method
[7] = molecular target: T2, Matrix metalloproteinase-9; assay: Inhibition of human MMP9 using 3163v as substrate preincubated for 15 mins followed by substrate addition and measured after 40 mins by fluorometric method

T3 sequence (P08253 whole entry): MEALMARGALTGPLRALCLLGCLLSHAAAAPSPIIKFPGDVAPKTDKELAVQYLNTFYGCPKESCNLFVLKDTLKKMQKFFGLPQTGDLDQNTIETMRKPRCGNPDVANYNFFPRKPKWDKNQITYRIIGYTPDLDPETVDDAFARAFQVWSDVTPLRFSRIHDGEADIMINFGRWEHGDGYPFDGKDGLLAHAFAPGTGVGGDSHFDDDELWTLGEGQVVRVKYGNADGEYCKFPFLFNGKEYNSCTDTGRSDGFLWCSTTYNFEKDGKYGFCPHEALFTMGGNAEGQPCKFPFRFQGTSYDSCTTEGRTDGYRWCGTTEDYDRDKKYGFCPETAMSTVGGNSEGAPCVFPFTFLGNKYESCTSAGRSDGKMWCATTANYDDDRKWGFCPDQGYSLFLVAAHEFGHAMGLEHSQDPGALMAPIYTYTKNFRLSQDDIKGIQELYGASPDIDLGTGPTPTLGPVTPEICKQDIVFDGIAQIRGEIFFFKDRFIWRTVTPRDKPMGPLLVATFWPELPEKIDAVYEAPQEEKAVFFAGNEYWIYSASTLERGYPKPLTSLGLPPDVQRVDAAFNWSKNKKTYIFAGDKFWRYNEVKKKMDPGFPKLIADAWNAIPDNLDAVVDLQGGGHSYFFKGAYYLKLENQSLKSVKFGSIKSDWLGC
T2 sequence (P14780 whole entry): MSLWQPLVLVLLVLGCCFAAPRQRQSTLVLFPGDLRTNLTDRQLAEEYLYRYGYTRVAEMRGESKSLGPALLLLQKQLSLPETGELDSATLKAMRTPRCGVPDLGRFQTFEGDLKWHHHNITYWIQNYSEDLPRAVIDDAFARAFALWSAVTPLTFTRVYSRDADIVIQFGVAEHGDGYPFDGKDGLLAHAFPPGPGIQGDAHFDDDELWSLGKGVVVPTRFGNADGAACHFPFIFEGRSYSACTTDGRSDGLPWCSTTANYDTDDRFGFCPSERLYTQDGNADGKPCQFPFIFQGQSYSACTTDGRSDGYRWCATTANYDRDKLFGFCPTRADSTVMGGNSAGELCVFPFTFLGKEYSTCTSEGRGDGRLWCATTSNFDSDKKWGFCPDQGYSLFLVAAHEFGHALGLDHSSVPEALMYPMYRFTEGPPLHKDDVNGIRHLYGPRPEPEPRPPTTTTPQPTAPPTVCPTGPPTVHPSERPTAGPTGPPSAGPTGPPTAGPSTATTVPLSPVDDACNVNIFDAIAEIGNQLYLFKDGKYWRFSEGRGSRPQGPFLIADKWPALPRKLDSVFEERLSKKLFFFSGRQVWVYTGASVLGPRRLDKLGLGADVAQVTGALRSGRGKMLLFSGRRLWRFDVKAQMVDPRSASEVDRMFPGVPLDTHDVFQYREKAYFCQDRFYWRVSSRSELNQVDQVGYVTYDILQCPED
Sequence of Macrophage metalloelastase (P39900 whole entry): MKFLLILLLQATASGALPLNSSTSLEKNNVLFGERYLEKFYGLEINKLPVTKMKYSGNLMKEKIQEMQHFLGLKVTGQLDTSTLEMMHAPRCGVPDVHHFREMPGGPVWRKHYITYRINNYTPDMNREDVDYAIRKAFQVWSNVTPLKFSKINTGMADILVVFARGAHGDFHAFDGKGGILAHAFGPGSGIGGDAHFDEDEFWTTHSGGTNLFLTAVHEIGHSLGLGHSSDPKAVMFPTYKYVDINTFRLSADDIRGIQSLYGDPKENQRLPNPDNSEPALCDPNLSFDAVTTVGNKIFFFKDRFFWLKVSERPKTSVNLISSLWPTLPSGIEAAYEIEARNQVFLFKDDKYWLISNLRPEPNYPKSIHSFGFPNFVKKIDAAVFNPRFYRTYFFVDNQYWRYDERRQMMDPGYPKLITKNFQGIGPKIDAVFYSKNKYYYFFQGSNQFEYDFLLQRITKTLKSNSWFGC
Sequence of Stromelysin-1 (P08254 whole entry): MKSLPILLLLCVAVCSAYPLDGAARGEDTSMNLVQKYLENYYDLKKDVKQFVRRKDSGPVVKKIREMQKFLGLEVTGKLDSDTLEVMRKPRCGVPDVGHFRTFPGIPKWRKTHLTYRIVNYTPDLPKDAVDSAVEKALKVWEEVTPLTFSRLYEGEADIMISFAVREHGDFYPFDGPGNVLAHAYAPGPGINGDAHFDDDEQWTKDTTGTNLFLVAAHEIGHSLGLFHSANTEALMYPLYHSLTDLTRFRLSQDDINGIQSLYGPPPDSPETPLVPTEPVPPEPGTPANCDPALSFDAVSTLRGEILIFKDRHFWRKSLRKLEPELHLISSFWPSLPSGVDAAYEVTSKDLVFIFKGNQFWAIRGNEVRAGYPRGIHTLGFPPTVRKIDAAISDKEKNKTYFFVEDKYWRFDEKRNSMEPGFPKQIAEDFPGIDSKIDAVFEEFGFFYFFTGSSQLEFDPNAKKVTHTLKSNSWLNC

pIC50 [1]: < 4.00
SMILES: CCCC(C)NC(=O)c1ccc(Cl)c(Cl)c1 (centres undefined)

pIC50 [2]: 8.60
SMILES: NC(=O)[C@H](CCC(=O)O)NC(=O)c1ccc(-c2cc(-c3ccccc3)cs2)cc1

pIC50 [3]: 6.51
pIC50 [4]: 6.18
SMILES: CCCCCC(=O)N1CC(F)(F)C[C@@H]1C(=O)N(C)[C@H](C(=O)N[C@@H](CCNC(=O)c1ccccc1)C(=O)NO)[C@@H](C)CC

pIC50 [5]: 5.70
pIC50 (Stromelysin-1): < 5.00
pIC50 (Matrilysin): < 5.00
pIC50 [6]: 7.52
pIC50 [7]: < 5.00
SMILES: CC[C@H](C)[C@H](N)C(=O)N[C@@H](CO)C(=O)N[C@@H](Cc1ccc(O)cc1)C(=O)NCC(=O)N[C@@H](CC(N)=O)C(=O)N[C@@H](CC(=O)O)C(=O)N[C@@H](C)C(=O)N[C@@H](CC(C)C)C(=O)N[C@@H](CCSC)C(=O)N1CCC[C@H]1C(=O)O (H-ISYGNDALMP-OH)
